# Measured values as given in ChEMBL document CHEMBL1154409, “Contribution of the CmeABC efflux pump to macrolide and tetracycline resistance in Campylobacter jejuni” (2007).
# Peptide text beside a SMILES is read from it. * marks the point of attachment. βNA = c1ccc2cc(N*)ccc2c1
# What was measured:
# [1] = target: T1, CmeA (Campylobacter jejuni) (UniProt Q8RTE5); assay: Inactivation of CmeABC efflux pump in Campylobacter jejuni 25-19 assessed as change in clarithromycin MIC by agar dilution method
# T1 sequence (whole entry): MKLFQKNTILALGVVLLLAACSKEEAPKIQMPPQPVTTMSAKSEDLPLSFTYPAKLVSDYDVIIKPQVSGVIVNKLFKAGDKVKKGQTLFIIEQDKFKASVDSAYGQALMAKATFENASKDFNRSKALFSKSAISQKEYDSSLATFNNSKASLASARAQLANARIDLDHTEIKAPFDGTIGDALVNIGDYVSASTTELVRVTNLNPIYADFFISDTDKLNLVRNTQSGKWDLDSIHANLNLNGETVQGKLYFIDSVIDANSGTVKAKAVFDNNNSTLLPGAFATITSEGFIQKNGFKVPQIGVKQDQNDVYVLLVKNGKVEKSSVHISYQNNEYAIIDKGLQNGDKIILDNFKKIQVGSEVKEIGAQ
# Campylobacter jejuni [2] = assay: Inactivation of CmeABC efflux pump in Campylobacter jejuni 25-19 assessed as change in erythromycin MIC by agar dilution method
# Campylobacter jejuni [3] = assay: Antibacterial activity against Campylobacter jejuni UA709 cmeB::kanamycin-resistant mutant by agar dilution method; type: functional
# Campylobacter jejuni [4] = assay: Antibacterial activity against Campylobacter jejuni 001B-40 carrying A2075G mutation in 23S rRNA by agar dilution method; type: functional
# Campylobacter jejuni [5] = assay: Antibacterial activity against Campylobacter jejuni 001B-40 cmeB::kanamycin-resistant mutant by agar dilution method; type: functional
# Campylobacter jejuni [6] = assay: Antibacterial activity against Campylobacter jejuni 001B-22 cmeB::kanamycin-resistant mutant by agar dilution method; type: functional
# Campylobacter jejuni [7] = assay: Antibacterial activity against Campylobacter jejuni 001B-22 carrying A2075G mutation in 23S rRNA by agar dilution method; type: functional
# Campylobacter jejuni [8] = assay: Ratio of MIC for Campylobacter jejuni 001B-22 carrying A2075G mutation in 23S rRNA to MIC for Campylobacter jejuni 001B-22 cmeB::kanamycin-resistant mutant; type: functional
# Campylobacter jejuni [9] = assay: Antibacterial activity against Campylobacter jejuni UA709 carrying A2074C mutation in 23S rRNA by agar dilution method; type: functional
# Campylobacter jejuni [10] = assay: Ratio of MIC for Campylobacter jejuni 001B-40 carrying A2075G mutation in 23S rRNA to MIC for Campylobacter jejuni 001B-40 cmeB::kanamycin-resistant mutant; type: functional
# Campylobacter jejuni [11] = assay: Antibacterial activity against Campylobacter jejuni 25-45 cmeB:: Kanamycin-resistant mutant by agar dilution method; type: functional
# Campylobacter jejuni [12] = assay: Antibacterial activity against Campylobacter jejuni 81-176 cmeB: kanamycin-resistant mutant carrying tet(O)+ gene; type: functional
# Campylobacter jejuni [13] = assay: Antibacterial activity against Campylobacter jejuni 15-21 cmeB:: Kanamycin-resistant mutant by agar dilution method; type: functional
# Campylobacter jejuni [14] = assay: Antibacterial activity against Campylobacter jejuni 81-176 carrying tet(O)+ gene by agar dilution method; type: functional
# Campylobacter jejuni [15] = assay: Antibacterial activity against Campylobacter jejuni 25-19 cmeB:: Kanamycin-resistant mutant by agar dilution method; type: functional
# Campylobacter jejuni [16] = assay: Antibacterial activity against Campylobacter jejuni 15-21 by […]; type: functional
# Escherichia coli [17] = assay: Antibacterial activity against Escherichia coli EW1b containing pDOB47; type: functional
# Campylobacter jejuni [18] = assay: Antibacterial activity against Campylobacter jejuni 25-19 by agar dilution method; type: functional
# Campylobacter jejuni [19] = assay: Antibacterial activity against Campylobacter jejuni 25-45 by agar dilution method; type: functional
# Campylobacter jejuni [20] = assay: Antibacterial activity against Campylobacter jejuni 23-51 cme:: Kanamycin-resistant mutant assessed by agar dilution method; type: functional
# Escherichia coli [21] = assay: Antibacterial activity against wild type Escherichia coli DH5alpha by agar dilution assay; type: functional
# Campylobacter jejuni [22] = assay: Antibacterial activity against Campylobacter jejuni 23-51 assessed as inhibition of CmeABC efflux pump by agar dilution method; type: functional
Structure (SMILES),fold change (FC) (Campylobacter jejuni [2]),MIC (Campylobacter jejuni [3]) [µg/mL],MIC (Campylobacter jejuni [4]) [µg/mL],MIC (Campylobacter jejuni [5]) [µg/mL],MIC (Campylobacter jejuni [6]) [µg/mL],MIC (Campylobacter jejuni [7]) [µg/mL],fold change (FC) (Campylobacter jejuni [8]),MIC (Campylobacter jejuni [9]) [µg/mL],other results
N=C(N)NCCC[C@H](NC(=O)[C@@H](N)Cc1ccccc1)C(=O)Nc1ccc2ccccc2c1 (H-Phe-Arg-βNA),3,–,–,–,–,–,–,–,fold change (FC) [1]: 2
CC[C@H]1OC(=O)[C@H](C)[C@@H](O[C@H]2C[C@@](C)(OC)[C@@H](O)[C@H](C)O2)[C@H](C)[C@@H](O[C@@H]2O[C@H](C)C[C@H](N(C)C)[C@H]2O)[C@](C)(OC)C[C@@H](C)C(=O)[C@H](C)[C@@H](O)[C@]1(C)O [CLARITHROMYCIN],2,128,265,8,4,64,16,128,fold change (FC) (Campylobacter jejuni [10]): >32
CC[C@H]1OC(=O)[C@H](C)[C@@H](O[C@H]2C[C@@](C)(OC)[C@@H](O)[C@H](C)O2)[C@H](C)[C@@H](O[C@@H]2O[C@H](C)C[C@H](N(C)C)[C@H]2O)[C@](C)(O)C[C@@H](C)C(=O)[C@H](C)[C@@H](O)[C@]1(C)O [ERYTHROMYCIN],–,1020,> 1020,8,4,256,64,1020,–
CN(C)[C@@H]1C(O)=C(C(N)=O)C(=O)[C@@]2(O)C(O)=C3C(=O)c4c(O)cccc4[C@@](C)(O)[C@H]3C[C@@H]12 [TETRACYCLINE],–,–,–,–,–,–,–,–,MIC (Campylobacter jejuni [11]): 8 µg/mL; MIC (Campylobacter jejuni [12]): 2 µg/mL; MIC (Campylobacter jejuni [13]): 4 µg/mL; MIC (Campylobacter jejuni [14]): 32 µg/mL; MIC (Campylobacter jejuni [15]): 4 µg/mL; MIC (Campylobacter jejuni [16]): 128 µg/mL; MIC (Escherichia coli [17]): 16 µg/mL; MIC (Campylobacter jejuni [18]): 64 µg/mL; MIC (Campylobacter jejuni [19]): 256 µg/mL; MIC (Campylobacter jejuni [20]): 8 µg/mL; MIC (Escherichia coli [21]): 64 µg/mL; MIC (Campylobacter jejuni [22]): 512 µg/mL
